Data: paper PMC4645461 (Peptides, 2015)
“Also recorded” adds a separate entry of the source.

Columns and labels:
[1] = cited from earlier work
rat GLP-1 receptor = target: T1, rat GLP-1 receptor (Rattus norvegicus, UniProt P32301); assay: cAMP accumulation, CHL cells over-expressing the rat GLP-1 receptor; type: cell-based; conditions: analogue average EC50/average GLP-1 EC50; below 1 enhanced efficacy, above 1 decreased efficacy vs native peptide
T1 construct: host or cells: CHL (Chinese hamster lung)
T1 sequence (P32301 22-463): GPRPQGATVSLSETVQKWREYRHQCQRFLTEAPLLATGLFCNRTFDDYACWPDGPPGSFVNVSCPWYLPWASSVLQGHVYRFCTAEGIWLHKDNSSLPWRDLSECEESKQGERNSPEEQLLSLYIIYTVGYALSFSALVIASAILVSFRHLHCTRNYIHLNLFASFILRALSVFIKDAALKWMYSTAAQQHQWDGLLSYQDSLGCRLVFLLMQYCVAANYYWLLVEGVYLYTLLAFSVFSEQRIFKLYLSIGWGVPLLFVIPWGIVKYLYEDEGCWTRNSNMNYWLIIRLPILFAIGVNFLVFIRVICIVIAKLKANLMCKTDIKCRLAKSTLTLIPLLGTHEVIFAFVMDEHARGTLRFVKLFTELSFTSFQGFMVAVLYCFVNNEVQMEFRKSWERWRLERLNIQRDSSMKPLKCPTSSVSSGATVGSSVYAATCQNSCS
Method: (§1) For cAMP studies, cells were seeded at a density of 150000 cells/ml in a 48 well plate (Nunc, VWR International Inc., Chicago, USA) and incubated for 24 h. Cells were serum starved for 1 h and then incubated for 30 mins at room temperature with a range of peptide concentrations diluted in serum free DMEM (Sigma–Aldrich, Dorset, UK) in the presence of 1 mM IBMX (3-isobutyl-1-methylxanthine, Sigma–Aldrich). […] EC50’s were calculated using Prism v5 (GraphPad Software Inc., San Diego, CA, USA). Concentrations were applied in duplicate or triplicate per experiment and each experiment repeated a minimum of 3 times.
(§2) All food and bodyweight data are presented as mean ± SEM. […] Differences in 0–7 days cumulative food intake and bodyweight data were analysed using one way ANOVA and post hoc tests with Dunnett’s or Bonferroni corrections for multiple comparisons (Prism v5, GraphPad Software Inc. San Diego, CA, USA). cAMP EC50’s were calculated using a sigmoidal dose response curve and non-linear regression (Prism v5). […] In all cases P < 0.05 was considered statistically significant.

[2] = rodents and humans; ref [7],[19],[34],[36],[37]; cited from earlier work
[3] = set-up: method as in earlier work; conditions: native oxyntomodulin and longer lasting dual analogues; rodents ref [6],[9],[10],[23],[26],[31]; humans ref [36],[37]; cited from earlier work
Source text: Additionally, methods of peptide administration differ: some studies infused peptides while others administer ...

human GLP-1 receptor = conditions: compared to native peptides; ref [22],[23],[32]; cited from earlier work
human glucagon receptor = conditions: compared to native peptides; ref [22],[23],[32]; cited from earlier work
rat glucagon receptor = target: T2, rat glucagon receptor (Rattus norvegicus, UniProt P30082); assay: cAMP accumulation, CHO-K1 cells over-expressing the rat glucagon receptor; type: cell-based; conditions: rat glucagon receptor vs rat GLP-1 receptor
T2 construct: host or cells: CHO-K1
T2 sequence (P30082 27-485): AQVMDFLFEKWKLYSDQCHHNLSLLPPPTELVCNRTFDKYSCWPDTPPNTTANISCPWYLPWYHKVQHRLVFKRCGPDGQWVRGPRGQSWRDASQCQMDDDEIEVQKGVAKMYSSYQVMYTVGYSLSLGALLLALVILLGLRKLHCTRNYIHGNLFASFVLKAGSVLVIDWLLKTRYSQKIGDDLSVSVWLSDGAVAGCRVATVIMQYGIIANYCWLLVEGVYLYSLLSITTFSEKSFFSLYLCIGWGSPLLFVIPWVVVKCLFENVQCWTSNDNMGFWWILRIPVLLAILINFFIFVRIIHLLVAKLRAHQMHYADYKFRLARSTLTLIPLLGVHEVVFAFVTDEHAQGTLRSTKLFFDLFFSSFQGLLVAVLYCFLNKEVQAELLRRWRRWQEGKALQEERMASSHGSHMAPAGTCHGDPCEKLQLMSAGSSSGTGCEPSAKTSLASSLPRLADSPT
Method: as §1, §2

Exendin-4
weight loss in standard chow fed animals ([1]; ref [33],[38]): weight loss

GLP-1(7-36NH2)
EC50 ratio to native peptide, Rat GLP-1r (rat GLP-1 receptor): 1.0 arbitrary units

oxyntomodulin [OXM]
energy expenditure [2]: increase energy expenditure
food intake after repeated peripheral administration [3]: reduction in food intake
weight loss ([1]; peripheral administration, rodents ref [1],[5],[6],[25], humans ref [4],[36],[37]): causes weight loss
activation of human GLP-1 receptor (human GLP-1 receptor): reduced efficacy compared to the native peptides
activation of human glucagon receptor (human glucagon receptor): reduced efficacy compared to the native peptides
preference between rat glucagon and GLP-1 receptors (rat glucagon receptor): greater efficacy at the glucagon receptor than the GLP1 receptor; also recorded: favoured glucagon receptor activity
